# Read-outs that look alike come from different tables or passages of the source.
# Legend:
# AKO mice = test: GW treatment in mouse model of ALD (AKO mice), fatty acid analysis by GC/MS and gene expression; assay type: in vivo
# From the text: ALD is a rare genetic disorder caused by defects in peroxisomal oxidation of very long-chain fatty acids (VLCFAs), resulting in systemic accumulation of VLCFAs, which causes tissue defects mainly in the central nervous system and the adrenal glands. The majority of VLCFAs in the body are endogenously synthesized from long-chain fatty acids (LCFAs). Therefore, one potential way to prevent VLCFA accumulation in ALD is by inducing mitochondrial LCFA oxidation to reduce the availability of LCFAs for VLCFA biosynthesis. In order to test this, a previously described mouse model of ALD was used, in which the X-linked adrenoleukodystrophy gene abcdl was systemically ablated and the knockout (AKO) mice faithfully recapitulated the abnormal VLCFA accumulation phenotype seen in ALD patients.
# 3-month-old AKO mice were treated with or without GW and their tissues collected for free FA analysis using GC/MS.
# [1] = Solubility (kinetic, thermodynamic); assay type: physicochemical
# % Parent remained in HLM = assay type: in vitro ADME
# [2] = assay type: in vitro ADME; details: MLM
# [3] = Pharmacokinetics in male CD-1 mice (i.v. and p.o.); assay type: in vivo; details: CD-1 mice; for Vd: CD-1, mouse, 3 mg/kg
# Protocol: The oral bioavailability and serum half lives of PPARδ ligands were compared in mice. The pharmacokinetics of PPARδ ligands delivered orally (10 mg/kg p.o.) and intravenously (3 mg·kg i.v.) were determined by mass spectrometry.
# In this example, the PK profile of several PPARδ agonists disclosed herein in male CD-1 mice or Wistar rats was determined. Similar methods can be used to analyze other compounds provided herein.
# (quantity sufficient ie made up to a final volume of 100% with water). All compounds were separately administered to CD-1 mice at 3 mg/kg iv or 10 mg/kg po.
# The concentration of the compound in plasma was determined, as illustrated in FIGS. 9A-9E.
# PPARδ = biological target: T1, PPARδ (Homo sapiens, UniProt Q03181); test: Nuclear Hormone Receptor (NHR) protein interaction assay (PathHunter), agonist format; assay type: cell-based
# T1 construct: expressed in transfected cells; host or cells: PathHunter NHR cell lines
# T1 sequence (Q03181 1-441): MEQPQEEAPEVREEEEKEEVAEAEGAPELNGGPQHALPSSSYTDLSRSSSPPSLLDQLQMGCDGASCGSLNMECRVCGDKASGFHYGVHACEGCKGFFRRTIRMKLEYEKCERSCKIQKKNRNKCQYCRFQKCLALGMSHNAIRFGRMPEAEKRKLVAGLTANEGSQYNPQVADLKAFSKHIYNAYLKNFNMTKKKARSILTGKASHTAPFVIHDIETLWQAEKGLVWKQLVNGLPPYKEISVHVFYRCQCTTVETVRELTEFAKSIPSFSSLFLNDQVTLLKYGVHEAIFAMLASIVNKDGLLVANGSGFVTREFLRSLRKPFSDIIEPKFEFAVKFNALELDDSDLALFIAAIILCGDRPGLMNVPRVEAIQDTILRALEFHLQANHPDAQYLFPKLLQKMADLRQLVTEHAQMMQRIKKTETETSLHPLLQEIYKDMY
# Protocol: • Cell Handling: PathHunter NHR cell lines were expanded from freezer stocks according to standard procedures. Cells were seeded in a total volume of 20 μL into white walled, 384-well microplates and incubated at 37° C. for the appropriate time prior to testing. Assay media contained charcoal-dextran filtered serum to reduce the level of hormones present. • Agonist Format: For agonist determination, cells were incubated with sample to induce response. Intermediate dilution of sample stocks was performed to generate 5× sample in assay buffer. 5 μL of 5× sample was added to cells and incubated at 37° C. or room temperature for 3-16 hours. Final assay vehicle concentration was 1%. • Antagonist Format: For antagonist determination, cells were pre-incubated with antagonist followed by agonist challenge at the EC80 concentration. Intermediate dilution of sample stocks was performed to generate 5× sample in assay buffer. 5 μL of 5× sample was added to cells and incubated at 37° C. or room temperature for 60 minutes. Vehicle concentration was 1%. […] Microplates were read following signal generation with a PerkinElmer Envision™ instrument for chemiluminescent signal detection. • Data Analysis: Compound activity was analyzed using CBIS data analysis suite (ChemInnovation, CA). For agonist mode assays, percentage activity was calculated using the following formula: % Activity=100%×(mean RLU of test sample−mean RLU of vehicle control)/(mean MAX control ligand−mean RLU of vehicle control).
# For antagonist mode assays, percentage inhibition was calculated using the following formula: % Inhibition=100%×(1−(mean RLU of test sample−mean RLU of vehicle control)/(mean RLU of EC80 control−mean RLU of vehicle control)). Note that for select assays, the ligand response produces a decrease in receptor activity (inverse agonist with a constitutively active target). For those assays inverse agonist activity was calculated using the following formula: % Inverse Agonist Activity=100%×((mean RLU of vehicle control−mean RLU of test sample)/(mean RLU of vehicle control−mean RLU of MAX control)).
# Human PPARδ LBD = biological target: T2, Human PPARδ LBD (Homo sapiens, UniProt Q03181); test: PPARδ activity screen (GAL4-PPARδ LBD luciferase transactivation in CV-1 cells); assay type: cell-based
# T2 construct: (PPARδ amino acid 128 to C-terminus); expressed in transfected cells; host or cells: CV-1 cells
# T2 sequence (Q03181 128-441 limits assumed): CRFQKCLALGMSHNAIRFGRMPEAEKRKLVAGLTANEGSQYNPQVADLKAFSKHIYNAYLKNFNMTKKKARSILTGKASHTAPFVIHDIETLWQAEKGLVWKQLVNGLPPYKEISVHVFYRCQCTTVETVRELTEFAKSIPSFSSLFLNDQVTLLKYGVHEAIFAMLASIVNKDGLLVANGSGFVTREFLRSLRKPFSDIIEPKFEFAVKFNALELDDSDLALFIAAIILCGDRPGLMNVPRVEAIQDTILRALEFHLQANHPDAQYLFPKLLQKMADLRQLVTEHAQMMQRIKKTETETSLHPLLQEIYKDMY
# Protocol: Cell Culture and Transfection: CV-1 cells were grown in DMEM+10% charcoal stripped FCS. Cells were seeded into 384-well plates the day before transfection to give a confluency of 50-80% at transfection. A total of […] containing 0.64 micrograms pCMX-PPARDelta LBD, 0.1 micrograms pCMXβGal, 0.08 micrograms pGLMH2004 reporter and 0.02 micrograms pCMX empty vector was transfected per well using FuGene transfection reagent according to the manufacturer's instructions (Roche).
# Plasmids: Human PPARδ was used to PCR amplify the PPARδ LBD. […] Ensuing fusions were verified by sequencing.
# Compounds: All compounds were dissolved in DMSO and diluted 1:1000 upon addition to the cells. Compounds were tested in quadruple in concentrations ranging from 0.001 to 100 μM. […] Each compound was tested in at least two separate experiments.
# Luciferase assay: Medium including test compound was aspirated and washed with PBS. 50 μl PBS including 1 mM Mg++ and Ca++ were then added to each well. The luciferase assay was performed using the LucLite kit according to the manufacturer's instructions (Packard Instruments). Light emission was quantified by counting on a Perkin Elmer Envision reader. […] Beta-galactosidase assays were performed in the microwell plates using a kit from Promega and read in a Perkin Elmer Envision reader. The beta-galactosidase data were used to normalize (transfection efficiency, cell growth etc.) the luciferase data.
# Statistical Methods: The activity of a compound is calculated as fold induction compared to an untreated sample. […] EC50 values were calculated via non-linear regression using GraphPad PRISM (GraphPad Software, San Diego, Calif.).
# [4] = male, mouse, iv, 3 mg/Kg i.v., plasma
# [5] = male, mouse, po, 10 mg/Kg p.o., plasma
# [6] = EC50 nM, Table 1, CV-1 cells, GAL4-PPARδ LBD luciferase reporter, compound 24 h
# [7] = PPARd, EC50 (nM) (from Salk), Table 15
# [8] = PathHunter NHR cell line, agonist format, read-out: NHR protein interaction assay, EC50 (nM) for PPARδ
# [9] = Table 1, CV-1 cells, GAL4-PPARδ LBD luciferase reporter, compound 24 h, read-out: EC50
# [10] = Table 15, read-out: PPARd, EC50 (nM) (from Salk)
smiles,measurement,setting,value
Cc1cc(SCc2sc(-c3ccc(C(F)(F)F)cc3)nc2C)ccc1OCC(=O)O [GW],"levels of VLCFAs (C22:0, C23:0, C24:0, C26:0) in AKO brain and liver","AKO mice; 8 weeks of GW treatment, 3-month-old AKO mice",significantly reduced
same,liver C26:0,"AKO mice; 8 weeks of GW treatment, most GW-treated animals",cleared
same,most saturated LCFAs (C12:0 to C22:0) and total FAs,AKO mice; AKO liver and muscle,significantly reduced
same,"expression of mitochondrial FA oxidation genes (Cptla and lb, Slc25a20, Acadl)",AKO mice; AKO liver and skeletal muscle,dramatically induced
O=C(O)CCCCCOc1ccccc1CN(C(=O)c1ccc(-c2ccco2)cc1)C1CC1 [compound 12],solubility kinetic,[1]; kinetic from dmso stock,6 µM
same,solubility thermodynamic,[1]; thermodynamic from solid,253 µM
same,"% Parent remained at 15 min, HLM",% Parent remained in HLM; 15 min,92%
same,"% Parent remained at 60 min, HLM",% Parent remained in HLM; 60 min,64%
same,"% Parent remained at 15 min, MLM",[2]; 15 min,59%
same,"% Parent remained at 60 min, MLM",[2]; 60 min,19%
same,Cl,"[3]; 3 mg/Kg i.v., plasma",194.938 mL/min/kg
same,Kel,"[3]; 3 mg/Kg i.v., plasma",3.85 h⁻¹
same,F,[3]; 10 mg/Kg p.o. vs 3 mg/Kg i.v.,~22%
same,Vd,"[3]; male, plasma, iv, 3 mg/Kg i.v., plasma, read-out: Vss",1.58 L/kg
same,Vd,"[3]; male, plasma, iv, 3 mg/Kg i.v., plasma, read-out: Vz",3.03 L/kg
same,AUC(0-inf),[3]; [4],256 ng·h/mL
same,C0,[3]; [4],1940 ng/mL
same,MRT,[3]; [4],7.2 min
same,half-life,"[3]; male, mouse, iv, 3 mg/Kg i.v., plasma, read-out: Beta T1/2 (converted)",10.8 min
same,AUC(0-inf),[3]; [5],187 ng·h/mL
same,Cmax,[3]; [5],129 ng/mL
same,Tmax,[3]; [5],30 min
same,half-life,"[3]; male, mouse, po, 10 mg/Kg p.o., plasma, read-out: T1/2 (converted)",156 min
CCC(C)N(Cc1ccccc1OCCCCCC(=O)O)C(=O)c1ccc(-c2ccco2)cc1 (stereo not drawn) [compound 37],EC50,PPARδ,17.5 nM
same,EC50,Human PPARδ LBD; [6],41 nM
same,EC50,Human PPARδ LBD; [7],41 nM
CC(C)N(Cc1ccccc1OCCCCCC(=O)O)C(=O)c1ccc(-c2ccccc2)cc1 [compound 57],EC50,PPARδ,25.9 nM
same,EC50,Human PPARδ LBD; [6],60 nM
same,EC50,Human PPARδ LBD; [7],42 nM
CC(C)N(Cc1ccccc1OCCCCCC(=O)O)C(=O)c1ccc(-c2ccco2)cc1 [compound 61],EC50,PPARδ; [8],5.9 nM
same,EC50,Human PPARδ LBD; [9],9 nM
same,EC50,Human PPARδ LBD; [10],9 nM
CC(C)N(Cc1ccccc1OCCCCCC(=O)O)C(=O)c1ccc(-c2ccoc2)cc1 [compound 62],EC50,PPARδ; [8],36.8 nM
same,EC50,Human PPARδ LBD; [9],61 nM
same,EC50,Human PPARδ LBD; [10],61 nM
CC(C)N(Cc1ccccc1OCCCCCC(=O)O)C(=O)c1ccc(-c2cccs2)cc1 [compound 63],EC50,PPARδ,8.4 nM
CC(C)N(Cc1ccccc1OCCCCCC(=O)O)C(=O)c1ccc(-c2ccsc2)cc1 [compound 64],EC50,PPARδ; [8],8.02 nM
same,EC50,Human PPARδ LBD; [9],17.2 nM
same,EC50,Human PPARδ LBD; [10],17.2 nM

# Reference: patent US10035819B2, “PPAR agonists and methods of use thereof” (The Salk Institute for Biological Studies, priority 2014, dated 2018)
